Entries after “also recorded” stand apart in the source; their conditions may differ.
What was measured:
[1] = tested on: psoriatic lesions; test: Clinical observation of psoriatic plaques under topical treatment; type: in vivo, human
Description: The base cream used is made predominantly of heavy paraffin oil (10% w/w), vaseline (10% w/w), stearyl alcohol (8% w/w), polyoxylsteareth-40 (3% w/w) and water (68% w/w) but another suitably formulated base cream is also possible. […] The dosing and the application schedules followed for the lesion shown in FIG. 1A (psoriatic plaque on the dorsum of hand) are as follows: about 30 μl cream applied directly onto the lesion with the aid of a steel spatula every four hours for 24 hours. The cream-applied area is protected from accidental smearing and loss of the cream by covering with an aluminum applicator (FIG. 1 B). The dosing and the application schedules followed for the lesion shown in FIG. 1 D (psoriatic plaque at the scapular region) are as follows: about 30 μl cream applied directly onto the lesion every four hours for 24 hours. The cream-applied area is similarly covered against the smearing and loss of cream. Other treated psoriatic patients and lesions received from about 30 to 35 μl cream to each lesion at intervals of every 3 to 5 hours, as suitable and convenient. Lesions were similarly covered against the smearing and loss of cream. […] The corticosteroid used for treatment of the lesion shown in FIG. 4E was clobetasol 17-propionate in a final concentration of about 1.1 mM in base cream.

[2] = tested on: palmoplantar pustulosis lesions; details: 0.55 mM alone for 4 days; cited from earlier work
[3] = tested on: psoriatic lesional skin; test: Histopathological examination (H&E) of treated psoriatic lesional skin sections; type: in vivo, human; details: 24th hour of treatment
Description: FIG. 1A and FIG. 1C show a psoriatic plaque before and after exposure to cyclopamine and the rapid clinical regression. The cyclopamine cream was applied to the proximal half of this lesion present on the dorsum of right hand of a patient having plaque-type psoriasis. At intervals of 4 hours, approximately 30 μl cream was applied directly onto the lesion and the cream-applied region was covered against accidental smearing and loss of the cream (FIG. 1 B).
FIG. 2A to FIG. 2W show histopathological and immunohistochemical examination findings of the tissue sections from the non-lesional skin, cyclopamine-treated lesional skin and non-treated lesional skin. Compared to the non-lesional skin (FIG. 2A), the non-treated lesional skin (FIG. 2B) is seen to display the typical histopathological signs of a psoriatic skin lesion mentioned above in the “Background of Invention”. […] These histopathological signs of regression to normalcy, exemplified in the figures FIG. 2C and FIG. 2D (examples from other cyclopamine-treated lesions and patients are given later) include the following: […]

[4] = tested on: human epithelial antigen; test: Immunohistochemical staining for epithelial antigen with Ber-EP4 antibody; type: in vivo
From the text: All reaction conditions were as recommended by the manufacturer.
The monoclonal antibody Ber-EP4 is known to label the basal layer cells in normal epidermis. The outer root sheath of hair follicles, where the hair stem cells are thought to reside, are also known to be labeled with Ber-EP4.

[5] = tested on: cytokeratin 15; test: Immunohistochemical staining with C8/144B antibody (cytokeratin 15)
From the text: All antibodies and reagents for these immunohistochemical investigations were purchased from DAKO (Glostrup, Denmark); human Ki-67 antigen was detected by the monoclonal antibody M7187, human epithelial antigen was detected by the monoclonal antibody Ber-EP4, human CD4 antigen was detected by the monoclonal antibody M0716, human CD8 antigen was detected by the monoclonal antibody C8/144B. Besides the CD8 antigen, the monoclonal antibody C8/144B is known to recognize and bind to the cytokeratin 15 expressed by the hair stem cells (Kanitakis J. et al. (1999) Eur. J. Dermatol. 9:363-365). A DAKO “universal visualization kit” (LSAB2) employing biotinylated secondary antibody and peroxidase-conjugated streptavidin (pre-diluted to match the dilutions of DAKO-supplied primary antibodies) was used for the visualization reactions. All reaction conditions were as recommended by the manufacturer.

[6] = tested on: healthy skin; test: Follow-up of healthy and non-lesional skin for adverse effects of topical cyclopamine; details: for adverse effect on healthy / non-lesional skin: topical application under the described concentration and dosing conditions
From the text: Genetic heterogeneity and different ages of the psoriatic patients as well as the localizational heterogeneity of psoriatic lesions throughout body invite evaluation of the use of cyclopamine on different patients and lesions.
As there is evidence for the involvement of the hedgehog/smoothened signal transduction pathway in the maintenance of epidermal stem cells, untoward side effects of cyclopamine on skin are, a priori, possible and must be excluded.

[7] = psoriatic lesional skin, 24th hour of treatment

Row | SMILES | regression or clearance of psoriatic lesions ([1]; about […], alone, four days of treatment) | effect on palmoplantar pustulosis lesions [2] | erythema of the psoriatic plaque ([1]; 12th hour of treatment, scapular plaque, cyclopamine applied for a day then discontinued) | effectiveness on psoriatic lesions (regression and clearance) ([1]; every lesion treated, unrelated patients 29 to 57 years, extremities to trunk) | state of the psoriatic plaque ([1]; fourth day of follow-up, scapular plaque, 1 day of treatment, still visible) | lesions subjected to the single-day treatment that failed to clear completely ([1]; human, in vivo) | day on which the lesion cleared ([1]; scapular plaque, cyclopamine applied for a day then discontinued) [days] | granular layer of epidermis [3] | histopathological signs of the psoriatic lesion [3] | Ber-EP4 labeling of basal cells of non-lesional skin ([4]; non-lesional skin after exposure to cyclopamine) | Ber-EP4 labeling of epidermal basal layer cells [4, 7] | cytokeratin 15 in basal cells of non-lesional epidermis ([5]; non-lesional epidermis exposed to cyclopamine) | C8/144B (cytokeratin 15) labeling of epidermal basal layer cells [5, 7] | appearance of skin sites of cyclopamine application ([6]; follow-up over a period of more than 31 months) | adverse effect on healthy / non-lesional skin [6] | adverse effect on healthy / non-lesional skin ([6]; listed as Cyclopamine)
1 | CCC(=O)O[C@]1(C(=O)CCl)[C@@H](C)C[C@H]2[C@@H]3CCC4=CC(=O)C=C[C@]4(C)[C@@]3(F)[C@@H](O)C[C@@]21C [clobetasol 17-propionate, reference compound] | unable to cause a significant regression or clearance | not to produce a perceptible effect | – | – | – | – | – | – | – | – | – | – | – | – | – | –
2 | CC1=C2C[C@H]3[C@@H](CC=C4C[C@@H](O)CC[C@@]43C)[C@@H]2CC[C@]12O[C@@H]1C[C@H](C)CN[C@H]1[C@H]2C [cyclopamine] | – | – | decreased erythema | highly effective | marked regression | about 29% | > 8 | Re-appearance of the granular layer | dramatic improvement and regression to normalcy; also recorded: regression of the psoriatic plaque | remained Ber-EP4 positive | reverted to normalcy; also recorded: reversion to normalcy; also recorded: Epidermal basal layer cells are seen to display the epithelial antigen | continued to be positive for the cytokeratin 15 | normalized and became labeled by the C8/144B antibody; also recorded: reversion to normalcy | healthy-looking normal skin and hair | no adverse effect has been detected | did not adversely affect the non-lesional skin; also recorded: no detectable adverse effect
